Data from patent US20230053540A1, “TREATMENT OF LIVER INJURY” (Massachusetts Institute of Technology, priority 2019, published 2023).

Tested on: hepatocytes
Experiment: Seq-Well scRNA-Seq of hepatocytes after APAP overdose (signature scores, DEG vs untreated)
Format: in vivo, mouse
Conditions: cluster A6 (APAP 6 hr)

Structure (SMILES): CC(=O)Nc1ccc(O)cc1 [APAP, acetaminophen]
- Cxadr avg_logFC: 0.6184
- Cxadr pct.1: 0.606
- Cyp4a14 avg_logFC: 0.5996
- Cyp4a14 pct.1: 0.776
- D10Wsu102e avg_logFC: 0.5134
- D10Wsu102e pct.1: 0.37
- Ddx3x avg_logFC: 0.4893
- Ddx3x pct.1: 0.692
- Ddx5 avg_logFC: 0.4732
- Ddx5 pct.1: 0.685
- Ddx21 avg_logFC: 0.6398
- Dgkd avg_logFC: 0.3462
- Dgkd pct.1: 0.282
- Dkc1 avg_logFC: 0.3232
- Dkc1 pct.1: 0.315
- Dot1l avg_logFC: 0.3695
- Dot1l pct.1: 0.282
- Dusp5 avg_logFC: 0.2889
- Dusp5 pct.1: 0.196
- Dusp6 avg_logFC: 0.4768
- Dusp6 pct.1: 0.482
- Dusp16 avg_logFC: 0.4153
- Dusp16 pct.1: 0.372
- Eaf1 avg_logFC: 0.5066
- Eaf1 pct.1: 0.427
- Efhd2 avg_logFC: 0.5545
- Efhd2 pct.1: 0.468
- Eif1a avg_logFC: 0.6585
- Eif1a pct.1: 0.599
- Eif4g2 avg_logFC: 0.3399
- Eif4g2 pct.1: 0.757
- Epas1 avg_logFC: 0.6264
- Epas1 pct.1: 0.604
- Etf1 pct.1: 0.606
- Etnppl avg_logFC: 0.4038
- Etnppl pct.1: 0.706
- Ets2 avg_logFC: 0.6277
- Ets2 pct.1: 0.415
- Fam107b avg_logFC: 0.4224
- Fam107b pct.1: 0.449
- Fam134b avg_logFC: 0.6202
- Fam134b pct.1: 0.678
- Fcgr3 avg_logFC: 0.294
- Fcgr3 pct.1: 0.107
- Fcna avg_logFC: 0.3469
- Fcna pct.1: 0.124
- Fxyd5 avg_logFC: 0.2697
- Fxyd5 pct.1: 0.138
- Gclc avg_logFC: 1.893
- Gclc pct.1: 0.962
- Gcnt2 avg_logFC: 0.4614
- Gcnt2 pct.1: 0.372
- Gm10800 avg_logFC: 0.5383
- Gm10800 pct.1: 0.115
- Gm15564 avg_logFC: 0.6079
- Gm15564 pct.1: 0.983
- Gm23388 avg_logFC: 0.4216
- Gm23388 pct.1: 0.222
- Gm24187 avg_logFC: 0.3969
- Gm24187 pct.1: 0.2
- Gm24245 avg_logFC: 0.5737
- Gm24245 pct.1: 0.422
- Gm26924 avg_logFC: 0.3029
- Gm26924 pct.1: 1
- Gnl3 avg_logFC: 0.477
- Gnl3 pct.1: 0.501
- Gpt2 avg_logFC: 0.3682
- Gpt2 pct.1: 0.764
- Gsta1 avg_logFC: 0.4204
- Gsta1 pct.1: 0.32
- Gtpbp4 avg_logFC: 0.4579
- Gtpbp4 pct.1: 0.477
- H2-Ab1 avg_logFC: 0.4491
- H2-Ab1 pct.1: 0.158
- H2-Eb1 avg_logFC: 0.3214
- H2-Eb1 pct.1: 0.105
- H3f3b avg_logFC: 0.5088
- H3f3b pct.1: 0.613
- Hba-a1 avg_logFC: 0.716
- Hba-a1 pct.1: 0.165
- Hba-a2 avg_logFC: 0.5328
- Hba-a2 pct.1: 0.131
- Heatr1 avg_logFC: 0.3433
- Heatr1 pct.1: 0.291
- Hic2 avg_logFC: 0.2673
- Hic2 pct.1: 0.15
- Hif1a avg_logFC: 0.4719
- Hif1a pct.1: 0.427
- Hilpda avg_logFC: 0.7698
- Hilpda pct.1: 0.403
- Hmox1 avg_logFC: 1.29
- Hmox1 pct.1: 0.558
- Hnf4a avg_logFC: 0.559
- Hnf4a pct.1: 0.835
- Hnrnpdl avg_logFC: 0.4137
- Hnrnpdl pct.1: 0.406
- Hsd17b13 avg_logFC: 0.5284
- Hsd17b13 pct.1: 0.864
- Ier5 avg_logFC: 0.2797
- Ier5 pct.1: 0.134
- Iigp1 avg_logFC: 0.6118
